Each structure is given as a SMILES string.

Holding throughout (format): cell-based, human
For experiment [1], the system named is peritoneal macrophages. In words: Intracellular thiol expression of peritoneal macrophages from peritoneal dialysis patients. As to conditions: time kinetic over 14 days. The procedure: Peritoneal macrophages were isolated from the effluate of peritoneal dialysis of patients with a high degree of renal insufficiency, absorbed in a cell culture medium and incubated in a gasifying incubation cabinet at 37° C., a relative humidity of 98% and 7.5% relative air-CO2 content. To investigate the influence of the combinations used according to the invention on the thiol status of the peritoneal macrophages, individual fractions were treated with α-lipoic acid, the effectors of the glutathione metabolism ambroxol or the ACE inhibitor enalapril and with the combination of α-lipoic acid/ambroxol or α-lipoic acid/enalapril, while an additional fraction was maintained as an untreated control. The cellular thiol status was determined using the measurement methods described in Example 1. FIG. 4 illustrates the effect of the combination of α-lipoic acid and ambroxol (FIG. 4a) and α-lipoic acid and enalapril (FIG. 4b) in a time kinetic over 14 days […].

Experiment [2] relates to peritoneal macrophages. The experiment can be described thus: Degree of differentiation and activation of peritoneal macrophages (CD15, CD11c, CD69, CD71 cytofluorimetry). As to conditions: Control = 1.0; after 6 days of incubation; α-lipoic acid 50 μM, ambroxol 10 μM, enalapril 5 μM, captopril 10 μM. The procedure: Peritoneal macrophages were isolated from patients during renal replacement therapy using the method described in Example 3 and cultivated in the presence of the combinations of α-lipoic acid and effectors of the glutathione metabolism according to the invention. After 6 days of incubation, the degree of differentiation of the peritoneal macrophages was determined by means of the expression of the cell surface antigens CD15 and CD11c, and the degree of cellular activation was determined using cytofluorimetry by means of the co-expression of the activation antigens CD69 to CD15-positive cells and CD71 to […] cells.

Experiment [3] relates to lymphocytes (peripheral immune cells). The experiment can be described thus: Membrane-bound thiol expression of thiol-depleted peripheral immune cells (CMTMR flow cytofluorimetry). As to conditions: α-lipoic acid 50 μM, captopril 10 μM, combination at the same concentrations. The procedure: Peripheral immune cells from healthy donors (n=9) were isolated from the peripheral blood. The major fraction of the resulting total population of mononuclear cells regularly represents lymphocytes with a relative percentage of approximately 90%, depending on the donor. 10% of the mononuclear cells are represented by monocytes. The mononuclear cells obtained were absorbed in special cell culture media and incubated in a gasifying incubation cabinet at 37° C., a relative humidity of 98% and 5% relative air-CO2 content. […] To test the influence of the combinations used according to the invention on the thiol status of thiol-deficient immune cells, these cells were artificially thiol-depleted. This process was carried out using proven methods by cultivation in thiol-deficient media (RPMI 1603). Comparative cultures using complete media (RPMI) 1640) were used to define the best possible normal value under the culture conditions. The expression of membrane-bound thiol groups was also determined using flow cytofluorimetry. In this case, chloromethyltetramethyl rhodamine (CMTMR) was used as thiol conjugate under the conditions of a blocked membrane potential and an inhibited diffusion capacity of the cells. The fluorescence intensity of the fluorochrome molecules bound to the cell membrane is in turn proportional to the number of thiol groups on the cell surface. The results obtained with this experimental investigation of the influence of the combinations according to the invention on the expression of cell membrane bound thiols are presented in FIG. 2 for the combinations of α-lipoic acid and ambroxol (FIG. 2a) and α-lipoic acid and enalapril (FIG. 2b). The following table presents the results for the combination of α-lipoic acid and captopril.

The test system of experiment [4] is peritoneal macrophages. In words: Phagocytosis capacity of peritoneal macrophages (cytofluorimetric test with opsonized fluorochrome-marked bacteria). As to conditions: treatment time of 6 days. The procedure: Peritoneal macrophages were isolated using a method analogous to the method described in Example 3 and cultivated ex vivo. The phagocytosis capacity was determined by a cytofluorimetric test on the single-cell level. The macrophages were thereby co-cultivated with opsonized and fluorochrome-marked bacteria. The number of bacteria absorbed during a defined period was determined quantitatively by means of the fluorescence intensity in the macrophages and was used as a measurement for their phagocytosis capacity. The influence of the combinations used according to the invention on the phagocytosis capacity of the peritoneal macrophages after a treatment time of 6 days is presented in the following table.

The next experiment relates to T-lymphocytes. The experiment can be described thus: Activation markers CD69, CD25, CD71 of PHA-stimulated T-lymphocytes (activation index). As to conditions: thiol-deficient cells, 1.0 μg/ml phytohemagglutinin, culture time 72 hours; normal = 1.0. The protocol: In the cultivation experiment described with reference to Example 1, human T-lymphocytes were stimulated with 1.0 μg/ml phytohemagglutinin. In a culture time of 72 hours, specific markers of the cellular activation were quantitatively detected using cytofluorimetery by means of monoclonal antibodies. The influence of the combinations used according to the invention on the activation markers CD69 (early activation antigen), CD25 (intermediate activation antigen) and CD71 (late activation antigen) of T-lymphocytes was measured. […] It can thus be concluded that the normalization of the cellular thiol status achieved by the combined use of α-lipoic acid and the respective effectors of the glutathione metabolism is accompanied by a restitution of cell function.

For experiment [5], the system named is peritoneal macrophages. In words: Stability of intracellular thiol restitution in peritoneal macrophages in the dialysis model. As to conditions: after approximately 4 days in the dialysis model. The procedure: The combinations of thiol-restored peritoneal macrophages used according to the invention were extracted from this test system after 6 days and cultivated over a period of 14 days in a dialysis model. For this purpose the peritoneal macrophages were adapted to matrices that were coated with collagen IV and placed in contact with conventional high-glucose dialysis solution 3 times a day for 60 minutes each time. In this case, the model was used for the induction of a combined hyperglycemic/osmotic stress. […] The membrane expression of thiol was determined on the basis of the median fluorescence intensity (mfi) of the specimen (3000 cells/measurement) after coupling to a chlormethyl-fuorochrome derivative. […] Here, too, there is a mono-effect of α-lipoic acid, although it lasts only briefly and after approximately 4 days in the dialysis model is only approximately 50% as effective as the combinations.

The subject of experiment [6] is peritoneal macrophages. In words: Membrane thiol expression of peritoneal macrophages from peritoneal dialysis patients. As to conditions: α-lipoic acid effect disappeared after 4 days of treatment. The procedure:
Peritoneal macrophages were isolated from the effluate of peritoneal dialysis of patients with a high degree of renal insufficiency, absorbed in a cell culture medium and incubated in a gasifying incubation cabinet at 37° C., a relative humidity of 98% and 7.5% relative air-CO2 content. To investigate the influence of the combinations used according to the invention on the thiol status of the peritoneal macrophages, individual fractions were treated with α-lipoic acid, the effectors of the glutathione metabolism ambroxol or the ACE inhibitor enalapril and with the combination of α-lipoic acid/ambroxol or α-lipoic acid/enalapril, while an additional fraction was maintained as an untreated control. The cellular thiol status was determined using the measurement methods described in Example 1. […] The membrane expression of thiols was determined on the basis of the median fluorescence intensity (mfi) of the specimen (3000 cells/measurement) after coupling to a chlormethyl-fluorochrome derivative.

As to `O=C(O)CCCCC1CCSS1` (stereo not drawn) [α-lipoic acid], the “Effect on cellular thiol expression of peritoneal macrophages (in words)” value in the experiment with peritoneal macrophages [1] was “increase of the cellular thiol expression”. In the experiment with peritoneal macrophages [2], the CD11c expression is recorded as 1.21 ± 0.11. In addition, in the experiment on peritoneal macrophages [2], the CD15/69 co-expression amounted to 1.09 ± 0.08. Moreover, the CD15 expression in the experiment on peritoneal macrophages [2] stood at 1.18 ± 0.16. Also, the Membrane-resistant thiol expression came out at 2.37 ± 0.45 mfiBeads/Ratio in experiment [3] (length of culture 0 d); 2.65 ± 0.39 mfiBeads/Ratio in experiment [3] (length of culture 1 d); 2.43 ± 0.52 mfiBeads/Ratio in experiment [3] (length of culture 2 d); 2.31 ± 0.36 mfiBeads/Ratio in experiment [3] (length of culture 3 d); 2.26 ± 0.20 mfiBeads/Ratio in experiment [3] (length of culture 4 d); 2.19 ± 0.13 mfiBeads/Ratio in experiment [3] (length of culture 6 d). For the same molecule, the Membrane-resistant thiol expression in experiment [3] (length of culture 8 d) was 1.93 ± 0.20 mfiBeads/Ratio; in experiment [3] (length of culture 10 d) it was 1.63 ± 0.16 mfiBeads/Ratio; in experiment [3] (length of culture 12 d) it was 1.32 ± 0.21 mfiBeads/Ratio; in experiment [3] (length of culture 14 d), 1.34 ± 0.20 mfiBeads/Ratio. For the same molecule, in the experiment with peritoneal macrophages [4], the “Phagocytosis rate higher than that of the untreated control by a factor of” value is given as 1.85. In the experiment with T-lymphocytes, the “Effect on the activation index of T-lymphocytes (CD69, CD25, CD71; in words)” value is “slight improvement of the cellular activation”. For the same molecule, the “Effectiveness relative to the combinations” value in the experiment on peritoneal macrophages [5] is given as “approximately 50%”. The “Effect on membrane-bound thiol expression of peritoneal macrophages (in words)” value in the experiment on peritoneal macrophages [6] is “very clear effect”.

For the origin of these results see patent US20040138311A1, “Medicament containing an effector of the glutathione metabolism together with $g(a)-lipoic acid for treating diabetes mellitus” (priority 2001, published 2004).
